Values of other authors in PubChem BioAssay AID1259410 (Chemical Carcinogenesis Research Information System (CCRIS), 2018).

Test system: rodent tumor promotion studies, tumor incidence
Experiment: CCRIS tumor promotion studies

Structure (SMILES): CCO
- outcome (Carcinogen: N-METHYL-N'-NITRO-N-NITROSOGUANIDINE, 70-25-7, Doses [Carcinogen]: 50 UG/ML IN DRINKING WATER FOR 20 WK, Doses [Promoter]: 0, 2.5 ML/KG BW OF 20% AGENT IN 0.9% SALINE SOLUTION 1/2D BEGINNING 1 WK POST LAST CARCINOGEN DOSE AND CONTINUING FOR DU, Route [Carcinogen]: ORAL, Route [Promoter]: INTRAPERITONEAL, Species: RAT, Strain/Sex: WISTAR/MALE): stomach: adenocarcinoma
- outcome (Carcinogen: N-METHYL-N-NITROSOUREA, 684-93-5, Doses [Carcinogen]: 30 MG/KG BW ONCE AT 50 D OF AGE, Doses [Promoter]: 0, 15% OF CALORIES IN DIET FOR 4 WK BEGINNING 3 WK PRIOR TO CARCINOGEN DOSE (STUDY DURATION: 25 WK), Route [Carcinogen]: INTRAPERITONEAL, Route [Promoter]: ORAL, Species: RAT, Strain/Sex: SPRAGUE-DAWLEY/FEMALE): mammary gland: adenocarcinoma
- outcome (Carcinogen: N-METHYL-N-NITROSOUREA, 684-93-5, Doses [Carcinogen]: 30 MG/KG BW ONCE AT 51 D OF AGE, Doses [Promoter]: 0, 15%, 20% OF CALORIES IN DIET BEGINNING 1 WK POST CARCINOGEN DOSE AND CONTINUING FOR DURATION OF STUDY (STUDY DURATION, Doses [Promoter]: 0, 15%, 20% OF CALORIES IN DIET BEGINNING 1 WK POST CARCINOGEN DOSE AND CONTINUING FOR DURATION OF STUDY (STUDY DURATION, Route [Carcinogen]: INTRAPERITONEAL, Route [Promoter]: ORAL, Species: RAT, Strain/Sex: SPRAGUE-DAWLEY/FEMALE): mammary gland: adenocarcinoma
- outcome (Carcinogen: N-NITROSODIMETHYLAMINE, 62-75-9, Doses [Carcinogen]: 1 PPM IN DRINKING WATER FOR 48 OR 72 WK, Doses [Promoter]: 0, 10% IN DRINKING WATER FOR 48 OR 72 WK (STUDY DURATION: 72 WK), Route [Carcinogen]: ORAL, Route [Promoter]: ORAL, Species: MOUSE, Strain/Sex: STRAIN-A/MALE): lung: tumor
- outcome (Carcinogen: N-NITROSODIMETHYLAMINE, 62-75-9, Doses [Carcinogen]: 5 MG/KG ONCE, Doses [Promoter]: 0, 5, 10, 20% SOLUTION ADMINISTERED WITH CARCINOGEN DOSE (STUDY DURATION: 16 WK), Doses [Promoter]: 0, 5, 10, 20% SOLUTION ADMINISTERED WITH CARCINOGEN DOSE (STUDY DURATION: 16 WK), Route [Carcinogen]: GAVAGE, Route [Promoter]: GAVAGE, Species: MOUSE, Strain/Sex: STRAIN-A/MALE): lung: tumor
- outcome (Carcinogen: N-NITROSODIMETHYLAMINE, 62-75-9, Doses [Carcinogen]: 5 PPM IN DRINKING WATER FOR 4 WK, Doses [Promoter]: 0, 1, 5, 10% IN DRINKING WATER FOR 4 WK (STUDY DURATION: 16 WK), Doses [Promoter]: 0, 1, 5, 10% IN DRINKING WATER FOR 4 WK (STUDY DURATION: 16 WK), Route [Carcinogen]: ORAL, Route [Promoter]: ORAL, Species: MOUSE, Strain/Sex: STRAIN-A/MALE): lung: tumor
- outcome (Carcinogen: N-NITROSOMETHYLBENZYLAMINE, 937-40-6, Doses [Carcinogen]: 0.2 MG/KG BW IN CORN OIL 3/WK FOR 3 WK, Doses [Promoter]: 0, 30% OF TOTAL CALORIES BEGINNING POST CARCINOGEN TREATMENT AND CONTINUING FOR DURATION OF STUDY (STUDY DURATION: 23 WK, Route [Carcinogen]: GAVAGE, Route [Promoter]: ORAL, Species: MOUSE, Strain/Sex: C57BL/FEMALE): esophagus: tumor
- outcome (Carcinogen: N-NITROSOMETHYLBENZYLAMINE, 937-40-6, Doses [Carcinogen]: 0.2 MG/KG IN CORN OIL 3/WK FOR 3 WK, Doses [Promoter]: SUBSTITUTED FOR MALTOSE DEXTRIN IN DIET TO PROVIDE 30% OF TOTAL DIETARY CALORIES BEGINNING POST CARCINOGEN TREATMENT AND, Route [Carcinogen]: GAVAGE, Route [Promoter]: ORAL, Species: MOUSE, Strain/Sex: C57BL/FEMALE): esophagus: tumor
- outcome (Carcinogen: N-NITROSOMETHYLBENZYLAMINE, 937-40-6, Doses [Carcinogen]: 2.5 MG/KG 3/WK FOR 3 WK, Doses [Promoter]: 1-2% IN LIQUID DIET ON DAY 1 AND INCREASING TO 7% BY DAY 8 OF AGENT TREATMENT BEGINNING 1 WK POST LAST CARCINOGEN DOSE F, Route [Carcinogen]: INTRAPERITONEAL, Route [Promoter]: ORAL, Species: RAT, Strain/Sex: SPRAGUE-DAWLEY/MALE): esophagus: papilloma
- outcome (Carcinogen: N-NITROSOPYRROLIDINE, 930-55-2, Doses [Carcinogen]: 6.8 PPM IN DRINKING WATER FOR 4 WK, Doses [Promoter]: 0, 10% IN STERILIZED DISTILLED DRINKING WATER ADMINISTERED WITH CARCINOGEN FOR 4 WK (STUDY DURATION: 36 WK), Route [Carcinogen]: ORAL, Route [Promoter]: ORAL, Species: MOUSE, Strain/Sex: STRAIN-A/MALE): lung: tumor
- outcome (Carcinogen: N-NITROSOPYRROLIDINE, 930-55-2, Doses [Carcinogen]: 40 PPM IN DRINKING WATER FOR 4 WK, Doses [Promoter]: 0, 10% IN STERILIZED DISTILLED DRINKING WATER ADMINISTERED WITH CARCINOGEN FOR 4 WK (STUDY DURATION: 36 WK), Route [Carcinogen]: ORAL, Route [Promoter]: ORAL, Species: MOUSE, Strain/Sex: STRAIN-A/MALE): lung: tumor
- outcome (Carcinogen: NITROSODIETHYLAMINE, 55-18-5, Doses [Carcinogen]: 6.8 PPM IN DRINKING WATER FOR 4 WK, Doses [Promoter]: 0, 10% IN STERILIZED DISTILLED DRINKING WATER ADMINISTERED WITH CARCINOGEN FOR 4 WK (STUDY DURATION: 36 WK), Route [Carcinogen]: ORAL, Route [Promoter]: ORAL, Species: MOUSE, Strain/Sex: STRAIN-A/MALE): lung: tumor; forestomach: carcinoma
- outcome (Doses [Carcinogen]: 1.5 MG/KG IN DMSO 2/WK FOR 10 WK (TOTAL DOSE: 30 MG/KG), Doses [Promoter]: 10% IN DRINKING WATER FOR 56 WK ADMINISTERED 1 WK POST CARCINOGEN DOSES (STUDY DURATION: 57 WK), Route [Carcinogen]: INTRAPERITONEAL, Route [Promoter]: ORAL, Species: RAT, Strain/Sex: ACI/N/MALE): liver: hepatocellular carcinoma, neoplastic nodule
